Active and inactive are the calls of the source. The calls are words filed in the database; no cut-off is given here.
Columns and labels:
RAW264.7 [1] = assay: Inhibition of NF-kappaB/p38 MAPK signaling pathway in mouse RAW264.7 cells assessed as reduction in RANKL-induced MMP-9 mRNA level after 24 hrs by qRT-PCR method; format: cell-based
RAW264.7 [2] = assay: Inhibition of RANKL-induced osteoclast differentiation in mouse RAW264.7 cells harboring ERbeta siRNA assessed as decrease in c-Fos mRNA level at 20 uM after 24 hrs by qRT-PCR method; format: functional, cell-based
RAW264.7 [3] = assay: Inhibition of NF-kappaB/p38 MAPK signaling pathway in mouse RAW264.7 cells assessed as reduction in RANKL-induced NFATc1 protein expression level after 24 hrs by Western blot method; format: cell-based
RAW264.7 [4] = assay: Inhibition of RANKL-induced osteoclast differentiation in mouse RAW264.7 cells assessed as decrease in TRAP activity at 10 to 40 uM after 5 days by microscopy; format: functional, cell-based
RAW264.7 [5] = assay: Inhibition of RANKL-induced osteoclast differentiation in mouse RAW264.7 cells harboring AMPKalpha1 siRNA assessed as decrease in c-Fos mRNA level at 20 uM after 24 hrs by qRT-PCR method; format: functional, cell-based
RAW264.7 [6] = assay: Inhibition of RANKL-induced osteoclast differentiation in mouse RAW264.7 cells assessed as decrease in size of TRAP-positive multinucleated cells after 5 days by microscopy; format: functional, cell-based
RAW264.7 [7] = assay: Inhibition of RANKL-induced osteoclast differentiation in mouse RAW264.7 cells harboring AMPKalpha1 siRNA assessed as decrease in TRAP activity at 10 to 40 uM after 5 days by microscopy; format: functional, cell-based
Mus musculus [8] = assay: Anti-osteoporotic activity in Balb/c mouse assessed as inhibition of OVX-mediated decrease in trabecular bone volume in femur at 25 to 100 mg/kg, ip administered for 4 weeks daily by microcomputed tomography; format: functional, organism-based
[9] = molecular target: T1, MAP kinase p38 (Mus musculus) (UniProt P47811+O08911+Q9WUI1+Q9Z1B7); assay: Inhibition of p38 MAPK signaling pathway in mouse RAW264.7 cells assessed as reduction in RANKL-induced ERK phosphorylation at 10 to 40 uM after 30 mins by Western blot method; format: cell-based
RAW264.7 [10] = assay: Inhibition of RANKL-induced osteoclast differentiation in mouse RAW264.7 cells harboring AMPKalpha1 siRNA assessed as decrease in NFATc1 mRNA level at 20 uM after 24 hrs by qRT-PCR method; format: functional, cell-based
RAW264.7 [11] = assay: Inhibition of RANKL-induced osteoclast differentiation in mouse RAW264.7 cells assessed as decrease in NFATc1 mRNA level at 20 uM after 24 hrs in presence of ERalpha antagonist MPP by qRT-PCR method; format: functional, cell-based
RAW264.7 [12] = assay: Inhibition of NF-kappaB/p38 MAPK signaling pathway in mouse RAW264.7 cells assessed as reduction in RANKL-induced NFATc1 nuclear translocation after 24 hrs by Western blot method; format: cell-based
RAW264.7 [13] = assay: Inhibition of RANKL-induced osteoclast differentiation in mouse RAW264.7 cells harboring ERalpha siRNA assessed as decrease in TRAP mRNA level at 20 uM after 24 hrs by qRT-PCR method; format: functional, cell-based
RAW264.7 [14] = assay: Inhibition of RANKL-induced osteoclast differentiation in mouse RAW264.7 cells assessed as TRAP activity after 5 days in presence of CAMKKbeta inhibitor STO609; format: functional, cell-based
RAW264.7 [15] = assay: Inhibition of NF-kappaB/p38 MAPK signaling pathway in mouse RAW264.7 cells assessed as reduction in RANKL-induced DC-STAMP mRNA level after 24 hrs by qRT-PCR method; format: cell-based
RAW264.7 [16] = assay: Inhibition of RANKL-induced osteoclast differentiation in mouse RAW264.7 cells assessed as decrease in size of TRAP-positive multinucleated cells at 20 uM after 5 days in presence of ERalpha antagonist MPP by microscopy; format: functional, cell-based
RAW264.7 [17] = assay: Inhibition of NF-kappaB/p38 MAPK signaling pathway in mouse RAW264.7 cells assessed as reduction in RANKL-induced NFATc1 mRNA level after 24 hrs by qRT-PCR method; format: cell-based
RAW264.7 [18] = assay: Inhibition of RANKL-induced osteoclast differentiation in mouse RAW264.7 cells assessed as decrease in number of TRAP-positive multinucleated cells at 20 uM after 5 days in presence of ERalpha antagonist MPP by microscopy; format: functional, cell-based
[19] = molecular target: T1, MAP kinase p38 (Mus musculus); assay: Inhibition of p38 MAPK signaling pathway in mouse RAW264.7 cells assessed as reduction in RANKL-induced JNK phosphorylation at 10 to 40 uM after 30 mins by Western blot method; format: cell-based
RAW264.7 [20] = assay: Inhibition of RANKL-induced osteoclast differentiation in mouse RAW264.7 cells harboring ERbeta siRNA assessed as decrease in size of TRAP-positive multinucleated cells at 20 uM after 5 days by microscopy; format: functional, cell-based
RAW264.7 [21] = assay: Inhibition of RANKL-induced osteoclast differentiation in mouse RAW264.7 cells harboring ERalpha siRNA assessed as decrease in size of TRAP-positive multinucleated cells at 20 uM after 5 days by microscopy; format: functional, cell-based
Mus musculus [22] = assay: Anti-osteoporotic activity in Balb/c mouse assessed as inhibition of OVX-induced NFATc1 mRNA expression level in bone marrow at 25 to 100 mg/kg, ip administered for 4 weeks daily by qRT-PCR method; format: functional, organism-based
RAW264.7 [23] = assay: Inhibition of RANKL-induced osteoclast differentiation in mouse RAW264.7 cells harboring AMPKalpha1 siRNA assessed as decrease in TRAP mRNA level at 20 uM after 24 hrs by qRT-PCR method; format: functional, cell-based
RAW264.7 [24] = assay: Inhibition of RANKL-induced osteoclast differentiation in mouse RAW264.7 cells assessed as decrease in number of TRAP-positive multinucleated cells at 20 uM after 5 days in presence of ERbeta antagonist PHTPP by microscopy; format: functional, cell-based
RAW264.7 [25] = assay: Inhibition of RANKL-induced bone resorption in mouse RAW264.7 cells assessed as reduction in pit formation after 7 days by optical microscopy; format: functional, cell-based
Mus musculus [26] = assay: Anti-osteoporotic activity in Balb/c mouse assessed as decrease in OVX-induced trabecular pattern factor in femur at 25 to 100 mg/kg, ip administered for 4 weeks daily by microcomputed tomography; format: functional, organism-based

COc1cc(C2Oc3c(OC)cc(/C=C/CO)cc3C2CO)ccc1O (stereo unspecified)
inhibition (RAW264.7 [1]): Dose-dependent effect
inhibition (RAW264.7 [2]): Active
inhibition (RAW264.7 [3]): Dose-dependent effect
inhibition (RAW264.7 [4]): Active
inhibition (RAW264.7 [5]): inactive
inhibition (RAW264.7 [6]): Dose-dependent effect
inhibition (RAW264.7 [7]): inactive
inhibition (Mus musculus [8]): Active
inhibition [9]: inactive
inhibition (RAW264.7 [10]): inactive
inhibition (RAW264.7 [11]): inactive
inhibition (RAW264.7 [12]): Dose-dependent effect
inhibition (RAW264.7 [13]): inactive
inhibition (RAW264.7 [14]): Active
inhibition (RAW264.7 [15]): Dose-dependent effect
inhibition (RAW264.7 [16]): inactive
inhibition (RAW264.7 [17]): Dose-dependent effect
inhibition (RAW264.7 [18]): inactive
inhibition [19]: inactive
inhibition (RAW264.7 [20]): Active
inhibition (RAW264.7 [21]): inactive
inhibition (Mus musculus [22]): Active
inhibition (RAW264.7 [23]): inactive
inhibition (RAW264.7 [24]): Active
inhibition (RAW264.7 [25]): Dose-dependent effect
Activity (Mus musculus [26]): Active
